Numbers after ± are expanded uncertainties.
Test: relative permittivity at various frequencies (dimensionless)
Conditions: 96.5 kPa, Liquid, Frequency=1 MHz, Parallel plate capacitor

O [water]
Conditions	relative permittivity
298.15 K	79.68 ± 3
308.15 K	75.51 ± 2.8
318.15 K	71.42 ± 2.7
328.15 K	68.44 ± 2.6
338.15 K	64.51 ± 2.4
348.15 K	60.78 ± 2.3

From the NIST ThermoML archive (doi:10.1016/j.jct.2018.12.025)
